Starred links: 1 amine or outer side, 2 acyl side, 3 side chain; linkers in the order of their positions; H or OH if unused. Non-standard residues stand in square brackets, D forms with d. Residues, ends and D or L forms follow the SMILES beside them. Groups on a side chain read outwards from the residue. *: point of attachment. C18 diacid = O=C(O)CCCCCCCCCCCCCCCCC(=O)*; γGlu = O=C(O)[C@H](CCC(=O)[*:2])N[*:1]; αMeF = C[C@](N)(Cc1ccccc1)C(=O)O; AEEA = NCCOCCOCC(=O)O; Aib = CC(C)(N)C(=O)O
Assays:
[1] = target: human GLP-1 receptor (hGLP-1R) (Homo sapiens, UniProt P43220); experiment: cAMP production (HTRF) in CHO cells expressing hGLP-1R; format: cell-based; parameters: expressed in transfected cells; settings: for EC50: Table 6, peptides modified at position 17, cAMP in CHO hGLP-1R cells, geometric mean, read-out: hGLP-1R EC50; for % Relative Potency Ratio: Table 6, % GLP-1R activity relative to GLP-1 / % GlucR activity relative to glucagon
How it was run: (§1)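 Cells were resuspended in assay buffer at batch-optimized density, typically 1×10^5 cells/mL for hGLP-1R and 2×10^5 cells/mL for hGCGR. After 30 min incubation at room temperature with compound, cAMP was measured by two-step HTRF. EC50 values came from 4-parameter logistic fits of % Delta F.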

[2] = target: human glucagon receptor (hGCGR) (Homo sapiens, UniProt P47871); experiment: cAMP production (HTRF) in CHO cells expressing hGCGR; format: cell-based; parameters: expressed in transfected cells; settings: Table 6, peptides modified at position 17; cAMP in CHO hGCGR cells; geometric mean; read-out: hGluc-R EC50
How it was run: as §1

human glucagon receptor (hGCGR), sequence (P47871 26-477): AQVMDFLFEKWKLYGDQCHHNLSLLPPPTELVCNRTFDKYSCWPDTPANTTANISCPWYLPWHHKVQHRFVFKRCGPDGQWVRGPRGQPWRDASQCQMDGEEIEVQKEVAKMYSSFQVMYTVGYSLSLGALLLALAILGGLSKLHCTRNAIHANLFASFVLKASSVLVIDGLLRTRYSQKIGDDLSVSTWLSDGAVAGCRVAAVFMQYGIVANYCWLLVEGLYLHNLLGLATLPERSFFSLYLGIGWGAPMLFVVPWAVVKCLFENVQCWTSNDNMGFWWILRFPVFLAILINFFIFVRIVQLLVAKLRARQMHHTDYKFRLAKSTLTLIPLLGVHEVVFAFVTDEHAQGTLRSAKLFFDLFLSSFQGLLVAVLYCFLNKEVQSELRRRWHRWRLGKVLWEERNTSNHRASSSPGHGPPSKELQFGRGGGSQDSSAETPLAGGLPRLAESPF
human GLP-1 receptor (hGLP-1R), sequence (P43220 24-463): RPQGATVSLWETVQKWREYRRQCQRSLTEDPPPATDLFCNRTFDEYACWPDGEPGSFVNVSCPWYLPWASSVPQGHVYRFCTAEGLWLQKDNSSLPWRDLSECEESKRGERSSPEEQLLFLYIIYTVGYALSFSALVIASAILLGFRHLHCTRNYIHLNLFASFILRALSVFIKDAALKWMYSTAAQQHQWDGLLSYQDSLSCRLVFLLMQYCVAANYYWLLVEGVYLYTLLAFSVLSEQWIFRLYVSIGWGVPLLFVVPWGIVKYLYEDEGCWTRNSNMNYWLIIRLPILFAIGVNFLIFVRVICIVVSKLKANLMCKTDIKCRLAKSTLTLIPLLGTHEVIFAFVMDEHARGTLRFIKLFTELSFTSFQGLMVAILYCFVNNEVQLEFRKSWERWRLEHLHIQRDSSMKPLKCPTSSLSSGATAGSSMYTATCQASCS

Row | SMILES | EC50 [1] [pM] | % Relative Potency Ratio [1] | EC50 [2] [pM]
1 | CC(C)C[C@H](NC(=O)[C@H](Cc1c[nH]c2ccccc12)NC(=O)[C@H](CCCNC(=N)N)NC(=O)[C@@H](NC(=O)[C@H](Cc1ccccc1)NC(=O)[C@H](CC(=O)O)NC(=O)[C@H](CCC(N)=O)NC(=O)[C@H](C)NC(=O)[C@H](CCCNC(=N)N)NC(=O)[C@H](CCCCNC(=O)COCCOCCNC(=O)COCCOCCNC(=O)CC[C@H](NC(=O)CCCCCCCCCCCCCCCCC(=O)O)C(=O)O)NC(=O)[C@@H](NC(=O)[C@H](CC(=O)O)NC(=O)[C@H](CC(C)C)NC(=O)[C@](C)(Cc1ccccc1)NC(=O)[C@H](CCCCN)NC(=O)[C@H](CO)NC(=O)[C@@H](NC(=O)[C@H](CC(=O)O)NC(=O)[C@H](CO)NC(=O)[C@@H](NC(=O)[C@H](Cc1ccccc1)NC(=O)[C@@H](NC(=O)CNC(=O)[C@H](CCC(N)=O)NC(=O)C(C)(C)NC(=O)[C@@H](N)Cc1c[nH]cn1)[C@@H](C)O)[C@@H](C)O)C(C)C)[C@@H](C)O)C(C)C)C(=O)N[C@@H](CC(C)C)C(=O)NC(C)(C)C(=O)N[C@H](C(=O)N[C@@H](CCC(=O)O)C(=O)O)[C@@H](C)O [Peptide 174] (H-H[Aib]QGTFTSDVSK[αMeF]LDTK([AEEA-AEEA-γGlu-C18 diacid])RAQDFVRWLL[Aib]TE-OH; N-terminus assumed) | 127 | 6.5 | 420
2 | CC(C)C[C@H](NC(=O)[C@H](Cc1c[nH]c2ccccc12)NC(=O)[C@H](CCCNC(=N)N)NC(=O)[C@@H](NC(=O)[C@H](Cc1ccccc1)NC(=O)[C@H](CC(=O)O)NC(=O)[C@H](CCC(N)=O)NC(=O)[C@H](C)NC(=O)[C@H](CCCNC(=N)N)NC(=O)[C@H](CCCCNC(=O)COCCOCCNC(=O)COCCOCCNC(=O)CC[C@H](NC(=O)CCCCCCCCCCCCCCCCC(=O)O)C(=O)O)NC(=O)[C@H](CCCCN)NC(=O)[C@H](CC(=O)O)NC(=O)[C@H](CC(C)C)NC(=O)[C@](C)(Cc1ccccc1)NC(=O)[C@H](CCCCN)NC(=O)[C@H](CO)NC(=O)[C@@H](NC(=O)[C@H](CC(=O)O)NC(=O)[C@H](CO)NC(=O)[C@@H](NC(=O)[C@H](Cc1ccccc1)NC(=O)[C@@H](NC(=O)CNC(=O)[C@H](CCC(N)=O)NC(=O)C(C)(C)NC(=O)[C@@H](N)Cc1c[nH]cn1)[C@@H](C)O)[C@@H](C)O)C(C)C)C(C)C)C(=O)N[C@@H](CC(C)C)C(=O)NC(C)(C)C(=O)N[C@H](C(=O)N[C@@H](CCC(=O)O)C(=O)O)[C@@H](C)O [Peptide 178] | 51.8 | 4.0 | 104
3 | CC(C)C[C@H](NC(=O)[C@H](CC(C)C)NC(=O)[C@H](Cc1c[nH]c2ccccc12)NC(=O)[C@H](CCCNC(=N)N)NC(=O)[C@@H](NC(=O)[C@H](Cc1ccccc1)NC(=O)[C@H](CC(=O)O)NC(=O)[C@H](CCC(N)=O)NC(=O)[C@H](C)NC(=O)[C@H](CCCNC(=N)N)NC(=O)[C@H](CCCCNC(=O)COCCOCCNC(=O)COCCOCCNC(=O)CC[C@H](NC(=O)CCCCCCCCCCCCCCCCC(=O)O)C(=O)O)NC(=O)[C@H](CO)NC(=O)[C@H](CC(=O)O)NC(=O)[C@H](CC(C)C)NC(=O)[C@](C)(Cc1ccccc1)NC(=O)[C@H](CCCCN)NC(=O)[C@H](CO)NC(=O)[C@@H](NC(=O)[C@H](CC(=O)O)NC(=O)[C@H](CO)NC(=O)[C@@H](NC(=O)[C@H](Cc1ccccc1)NC(=O)[C@@H](NC(=O)CNC(=O)[C@H](CCC(N)=O)NC(=O)C(C)(C)NC(=O)[C@@H](N)Cc1c[nH]cn1)[C@@H](C)O)[C@@H](C)O)C(C)C)C(C)C)C(=O)N[C@@H](CCC(=O)O)C(=O)N[C@@H](C)C(=O)NCC(=O)O [Peptide 179] (H-H[Aib]QGTFTSDVSK[αMeF]LDSK([AEEA-AEEA-γGlu-C18 diacid])RAQDFVRWLLEAG-OH; N-terminus assumed) | 131 | 3.1 | 203
4 | CC(C)C[C@H](NC(=O)[C@H](CC(C)C)NC(=O)[C@H](Cc1c[nH]c2ccccc12)NC(=O)[C@H](CCCNC(=N)N)NC(=O)[C@@H](NC(=O)[C@H](Cc1ccccc1)NC(=O)[C@H](CC(=O)O)NC(=O)[C@H](CCC(N)=O)NC(=O)[C@H](C)NC(=O)[C@H](CCCNC(=N)N)NC(=O)[C@H](CCCCNC(=O)COCCOCCNC(=O)COCCOCCNC(=O)CC[C@H](NC(=O)CCCCCCCCCCCCCCCCC(=O)O)C(=O)O)NC(=O)[C@H](CO)NC(=O)[C@H](CC(=O)O)NC(=O)[C@H](CC(C)C)NC(=O)[C@](C)(Cc1ccccc1)NC(=O)[C@H](CCCCN)NC(=O)[C@H](CO)NC(=O)[C@@H](NC(=O)[C@H](CC(=O)O)NC(=O)[C@H](CO)NC(=O)[C@@H](NC(=O)[C@H](Cc1ccccc1)NC(=O)[C@@H](NC(=O)CNC(=O)[C@H](CCC(N)=O)NC(=O)C(C)(C)NC(=O)[C@@H](N)Cc1c[nH]cn1)[C@@H](C)O)[C@@H](C)O)C(C)C)C(C)C)C(=O)N[C@@H](C)C(=O)NC(C)(C)C(=O)NCC(=O)O [Peptide 180] (H-H[Aib]QGTFTSDVSK[αMeF]LDSK([AEEA-AEEA-γGlu-C18 diacid])RAQDFVRWLLA[Aib]G-OH; N-terminus assumed) | 24.4 | 5.8 | 71.7

More lines, now with the values ahead:

Row | EC50 [1] [pM] | % Relative Potency Ratio [1] | EC50 [2] [pM] | SMILES
5 | 134 | 12.9 | 874 | CC(C)C[C@H](NC(=O)[C@H](Cc1c[nH]c2ccccc12)NC(=O)[C@H](CCCNC(=N)N)NC(=O)[C@@H](NC(=O)[C@H](Cc1ccccc1)NC(=O)[C@H](CC(=O)O)NC(=O)[C@H](CCC(N)=O)NC(=O)[C@H](C)NC(=O)[C@H](CCCNC(=N)N)NC(=O)[C@H](CCCCNC(=O)COCCOCCNC(=O)COCCOCCNC(=O)CC[C@H](NC(=O)CCCCCCCCCCCCCCCCC(=O)O)C(=O)O)NC(=O)[C@H](CO)NC(=O)[C@H](CCC(=O)O)NC(=O)[C@H](CC(C)C)NC(=O)[C@](C)(Cc1ccccc1)NC(=O)[C@H](CCCCN)NC(=O)[C@H](CO)NC(=O)[C@@H](NC(=O)[C@H](CC(=O)O)NC(=O)[C@H](CO)NC(=O)[C@@H](NC(=O)[C@H](Cc1ccccc1)NC(=O)[C@@H](NC(=O)CNC(=O)[C@H](CCC(N)=O)NC(=O)C(C)(C)NC(=O)[C@@H](N)Cc1c[nH]cn1)[C@@H](C)O)[C@@H](C)O)C(C)C)C(C)C)C(=O)N[C@@H](CC(C)C)C(=O)NC(C)(C)C(=O)N[C@@H](CCC(=O)O)C(=O)O [Peptide 173] (H-H[Aib]QGTFTSDVSK[αMeF]LESK([AEEA-AEEA-γGlu-C18 diacid])RAQDFVRWLL[Aib]E-OH; N-terminus assumed)
6 | 68.4 | 58.4 | 2020 | CC(C)C[C@H](NC(=O)[C@H](Cc1c[nH]c2ccccc12)NC(=O)[C@H](CCCNC(=N)N)NC(=O)[C@@H](NC(=O)[C@H](Cc1ccccc1)NC(=O)[C@H](CC(=O)O)NC(=O)[C@H](CCC(N)=O)NC(=O)[C@H](C)NC(=O)[C@H](CCCNC(=N)N)NC(=O)[C@H](CCCCNC(=O)COCCOCCNC(=O)COCCOCCNC(=O)CC[C@H](NC(=O)CCCCCCCCCCCCCCCCC(=O)O)C(=O)O)NC(=O)[C@H](CO)NC(=O)[C@H](CC(=O)O)NC(=O)[C@H](CC(C)C)NC(=O)[C@](C)(Cc1ccccc1)NC(=O)[C@H](CCCCN)NC(=O)[C@H](CO)NC(=O)[C@@H](NC(=O)[C@H](CC(=O)O)NC(=O)[C@H](CO)NC(=O)[C@@H](NC(=O)[C@H](Cc1ccccc1)NC(=O)[C@@H](NC(=O)CNC(=O)[C@H](CCC(N)=O)NC(=O)C(C)(C)NC(=O)[C@@H](N)Cc1c[nH]cn1)[C@@H](C)O)[C@@H](C)O)C(C)C)C(C)C)C(=O)N[C@@H](C)C(=O)NC(C)(C)C(=O)N[C@H](C(=O)N[C@@H](CCC(=O)O)C(=O)O)[C@@H](C)O [Peptide 175] (H-H[Aib]QGTFTSDVSK[αMeF]LDSK([AEEA-AEEA-γGlu-C18 diacid])RAQDFVRWLA[Aib]TE-OH)
7 | 59.9 | 15.9 | 480 | CC(C)C[C@H](NC(=O)[C@H](Cc1c[nH]c2ccccc12)NC(=O)[C@H](CCCNC(=N)N)NC(=O)[C@@H](NC(=O)[C@H](Cc1ccccc1)NC(=O)[C@H](CC(=O)O)NC(=O)[C@H](CCC(N)=O)NC(=O)[C@H](C)NC(=O)[C@H](CCCNC(=N)N)NC(=O)[C@H](CCCCNC(=O)COCCOCCNC(=O)COCCOCCNC(=O)CC[C@H](NC(=O)CCCCCCCCCCCCCCCCC(=O)O)C(=O)O)NC(=O)[C@H](CO)NC(=O)[C@H](CC(=O)O)NC(=O)[C@H](CC(C)C)NC(=O)[C@](C)(Cc1ccccc1)NC(=O)[C@H](CCCCN)NC(=O)[C@H](CO)NC(=O)[C@@H](NC(=O)[C@H](CC(=O)O)NC(=O)[C@H](CO)NC(=O)[C@@H](NC(=O)[C@H](Cc1ccccc1)NC(=O)[C@@H](NC(=O)CNC(=O)[C@H](CCC(N)=O)NC(=O)C(C)(C)NC(=O)[C@@H](N)Cc1c[nH]cn1)[C@@H](C)O)[C@@H](C)O)C(C)C)C(C)C)C(=O)N[C@@H](CC(C)C)C(=O)NC(C)(C)C(=O)N[C@H](C(=O)N[C@@H](C)C(=O)O)[C@@H](C)O [Peptide 176] (H-H[Aib]QGTFTSDVSK[αMeF]LDSK([AEEA-AEEA-γGlu-C18 diacid])RAQDFVRWLL[Aib]TA-OH; N-terminus assumed)
8 | 56 | 1.2 | 33.4 | CC(C)C[C@H](NC(=O)[C@H](Cc1c[nH]c2ccccc12)NC(=O)[C@H](CCCNC(=N)N)NC(=O)[C@@H](NC(=O)[C@H](Cc1ccccc1)NC(=O)[C@H](CC(=O)O)NC(=O)[C@H](CCC(N)=O)NC(=O)[C@H](C)NC(=O)[C@H](CCCNC(=N)N)NC(=O)[C@H](CCCCNC(=O)COCCOCCNC(=O)COCCOCCNC(=O)CCCCCCCCCCCCCCCCC(=O)O)NC(=O)[C@H](CO)NC(=O)[C@H](CC(=O)O)NC(=O)[C@H](CC(C)C)NC(=O)[C@](C)(Cc1ccccc1)NC(=O)[C@H](CCCCN)NC(=O)[C@H](CO)NC(=O)[C@@H](NC(=O)[C@H](CC(=O)O)NC(=O)[C@H](CO)NC(=O)[C@@H](NC(=O)[C@H](Cc1ccccc1)NC(=O)[C@@H](NC(=O)CNC(=O)[C@H](CCC(N)=O)NC(=O)C(C)(C)NC(=O)[C@@H](N)Cc1c[nH]cn1)[C@@H](C)O)[C@@H](C)O)C(C)C)C(C)C)C(=O)N[C@@H](CC(C)C)C(=O)N[C@@H](CCC(=O)O)C(=O)NC(C)(C)C(=O)NCC(=O)O [Peptide 181] (H-H[Aib]QGTFTSDVSK[αMeF]LDSK([AEEA-AEEA-C18 diacid])RAQDFVRWLLE[Aib]G-OH; N-terminus assumed)
